Experimental data reported in patent publication US20070142295A1, “Thrombopoietic compounds” (AMGEN INC., priority 1998, published 2007).
Like-named read-outs stand apart in the source and are kept apart here. Positions of bridges follow the written chain, without caps; N, C: chain ends. Residues, ends and D or L forms follow the SMILES beside them. No end group written: not given here. PEG = not defined here

How the values were obtained:
c-Mp1 [1] = biological target: T1, c-Mp1 (Homo sapiens, UniProt P40238); conditions: cited from earlier work
T1 sequence (P40238 26-635): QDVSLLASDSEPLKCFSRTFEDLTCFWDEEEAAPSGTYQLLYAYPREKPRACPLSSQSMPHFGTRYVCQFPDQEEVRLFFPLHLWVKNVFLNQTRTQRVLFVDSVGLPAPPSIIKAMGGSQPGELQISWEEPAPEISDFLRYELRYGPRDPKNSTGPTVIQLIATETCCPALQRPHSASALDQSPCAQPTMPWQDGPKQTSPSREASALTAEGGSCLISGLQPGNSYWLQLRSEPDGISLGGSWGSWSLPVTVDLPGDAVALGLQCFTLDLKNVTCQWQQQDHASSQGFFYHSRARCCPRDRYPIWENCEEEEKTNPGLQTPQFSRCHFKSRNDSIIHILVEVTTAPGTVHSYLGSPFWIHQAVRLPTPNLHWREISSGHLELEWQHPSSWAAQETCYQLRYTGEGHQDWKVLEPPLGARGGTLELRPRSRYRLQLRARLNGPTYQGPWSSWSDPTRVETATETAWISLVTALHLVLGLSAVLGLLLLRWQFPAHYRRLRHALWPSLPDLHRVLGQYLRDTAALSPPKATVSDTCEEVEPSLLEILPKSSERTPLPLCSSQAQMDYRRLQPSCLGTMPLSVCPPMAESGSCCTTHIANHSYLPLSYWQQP

c-Mp1 [2] = biological target: T1, c-Mp1; conditions: cited from earlier work; remark: listed apart in the source
human mpl receptor = biological target: T2, human mpl receptor (Homo sapiens, UniProt P40238); assay: TPO in vitro bioassay: mitogenic/cell-proliferation assay with IL-3 dependent murine 32D cells transfected with human mpl receptor; assay type: cell-based; conditions: cell proliferation assay
T2 construct: murine 32D cells transfected with the full-length c-Mp1; expressed in transfected cells; host or cells: IL-3 dependent clone of murine 32D cells
T2 sequence (P40238 26-635): T1 sequence (P40238 26-635)
Protocol: Bioactivity assay. The TPO in vitro bioassay is a mitogenic assay utilizing an IL-3 dependent clone of murine 32D cells that have been transfected with human mpl receptor. This assay is described in greater detail in WO 95/26746. Cells are maintained in MEM medium containing 10% Fetal Clone II and 1 ng/ml mIL-3. Prior to sample addition, cells are prepared by rinsing twice with growth medium lacking mIL-3. An extended twelve point TPO standard curve is prepared, ranging from 3333 to 39 pg/ml. Four dilutions, estimated to fall within the linear portion of the standard curve, (1000 to 125 pg/ml), are prepared for each sample and run in triplicate. A volume of 100 μl of each dilution of sample or standard is added to appropriate wells of a 96 well microtiter plate containing 10,000 cells/well. After forty-four hours at 37° C. and 10% CO2, MTS (a tetrazolium compound which is bioreduced by cells to a formazan) is added to each well. Approximately six hours later, the optical density is read on a plate reader at 490 nm. A dose response curve (log TPO concentration vs. O.D.—Background) is generated and linear regression analysis of points which fall in the linear portion of the standard curve is performed. Concentrations of unknown test samples are determined using the resulting linear equation and a correction for the dilution factor.
The resulting peptides are readily accessible by conventional solid phase peptide synthesis methods (Merrifiled, R. B., Journal of the American Chemical Society 85:2149 (1963)) with either Fmoc or t-Boc chemistry. […] This might be due to differences in the conditions used in the two assays. […] It is interesting to note that a wide range of length is tolerated by the linker. The optimal linker with the selected TMP monomers (SEQ ID NO: 1) apparently is composed of 8 glycines.

platelets = assay: platelet production in normal mice, dose response with 7-day micro-osmotic pumps; assay type: in vivo
Protocol: Mice. Normal female BDF1 approximately 10-12 weeks of age.
Bleed schedule. Ten mice per group treated on day 0, two groups started 4 days apart for a total of 20 mice per group. Five mice bled at each time point, mice were bled a minimum of three times a week. Mice were anesthetized with isoflurane and a total volume of 140-160 μl of blood was obtained by puncture of the orbital sinus. Blood was counted on a Technicon HIE blood analyzer running software for murine blood. Parameters measured were white blood cells, red blood cells, hematocrit, hemoglobin, platelets, neutrophils.
Treatments. Mice were either injected subcutaneously for a bolus treatment or implanted with 7 day micro-osmotic pumps for continuous delivery. Subcutaneous injections were delivered in a volume of 0.2 ml. Osmotic pumps were inserted into a subcutaneous incision made in the skin between the scapulae of anesthetized mice. Compounds were diluted in PBS with 0.1% BSA. All experiments included one control group, labeled “carrier” that were treated with this diluent only. The concentration of the test articles in the pumps was adjusted so that the calibrated flow rate from the pumps gave the treatment levels indicated in the graphs.
Compounds. A dose titration of the compound was delivered to mice in 7 day micro-osmotic pumps. Mice were treated with various compounds at a single dose of 100 ug/kg in 7 day osmotic pumps. Some of the same compounds were then given to mice as a single bolus injection.

Compound: IEGPTLRQWLAARA-OH [TMP monomer, IEGPTLRQWLAARA]
- IC50 (c-Mp1 [1]; read-out: IC50): 2 nM
- EC50 (c-Mp1 [2]): 400 nM

Compound: IEGPTLRQWLAARAGPNGIEGPTLRQWLAARA-OH [Peptide 13, TMP-GPNG-TMP]
- fold increase in potency as compared to the monomer (human mpl receptor): about 100 fold
- fold less active than the GGGG-linked analog (human mpl receptor): > 10 fold

Compound: IEGPTLRQWLAARAGGGNGSGGIEGPTLRQWLAARA-OH [Peptide 21, TMP-GGGNGSGG-TMP]
- in vitro bioactivity, in words (human mpl receptor): activity comparable to that of the -(Gly)8-linked analog

Compound: TMP-GGGK(PEG)GGGG-TMP (IEGPTLRQWLAARAGGGK(PEG)GGGGIEGPTLRQWLAARA; reading uncertain) [Peptide 19]
- in vitro bioactivity, in words (human mpl receptor): higher in vitro bioactivity as compared to their unpegylated counterparts

Compound: CC[C@H](C)[C@H](N)C(=O)N[C@@H](CCC(=O)O)C(=O)NCC(=O)N1CCC[C@H]1C(=O)N[C@H](C(=O)N[C@@H](CC(C)C)C(=O)N[C@@H](CCCNC(=N)N)C(=O)N[C@@H](CCC(N)=O)C(=O)N[C@@H](CS)C(=O)N[C@@H](CC(C)C)C(=O)N[C@@H](C)C(=O)N[C@@H](C)C(=O)N[C@@H](CCCNC(=N)N)C(=O)N[C@@H](C)C(=O)NCC(=O)NCC(=O)NCC(=O)NCC(=O)NCC(=O)NCC(=O)NCC(=O)NCC(=O)N[C@H](C(=O)N[C@@H](CCC(=O)O)C(=O)NCC(=O)N1CCC[C@H]1C(=O)N[C@H](C(=O)N[C@@H](CC(C)C)C(=O)N[C@@H](CCCNC(=N)N)C(=O)N[C@@H](CCC(N)=O)C(=O)N[C@@H](CS)C(=O)N[C@@H](CC(C)C)C(=O)N[C@@H](C)C(=O)N[C@@H](C)C(=O)N[C@@H](CCCNC(=N)N)C(=O)N[C@@H](C)C(=O)O)[C@@H](C)O)[C@@H](C)CC)[C@@H](C)O [Peptide 15, IEGPTLRQCLAARA-GGGGGGGG-IEGPTLRQCLAARA] (H-IEGPTLRQCLAARAGGGGGGGGIEGPTLRQCLAARA-OH; N-terminus assumed)
- in vitro bioactivity, in words (human mpl receptor): inactive

Compound: CC[C@H](C)[C@H](N)C(=O)N[C@@H](CCC(=O)O)C(=O)NCC(=O)N1CCC[C@H]1C(=O)N[C@H](C(=O)N[C@@H](CC(C)C)C(=O)N[C@@H](CCCNC(=N)N)C(=O)N[C@@H](CCC(N)=O)C(=O)N[C@@H](Cc1c[nH]c2ccccc12)C(=O)N[C@@H](CC(C)C)C(=O)N[C@@H](C)C(=O)N[C@@H](C)C(=O)N[C@@H](CCCNC(=N)N)C(=O)N[C@@H](C)C(=O)NCCCC[C@H](NC(=O)CCNC(=O)[C@H](C)NC(=O)[C@H](CCCNC(=N)N)NC(=O)[C@H](C)NC(=O)[C@H](C)NC(=O)[C@H](CC(C)C)NC(=O)[C@H](Cc1c[nH]c2ccccc12)NC(=O)[C@H](CCC(N)=O)NC(=O)[C@H](CCCNC(=N)N)NC(=O)[C@H](CC(C)C)NC(=O)[C@@H](NC(=O)[C@@H]1CCCN1C(=O)CNC(=O)[C@H](CCC(=O)O)NC(=O)[C@@H](N)[C@@H](C)CC)[C@@H](C)O)C(N)=O)[C@@H](C)O [TMP C-C dimer]
- IC50 (c-Mp1 [1]; read-out: binding affinity): 0.5 nM
- EC50 (c-Mp1 [2]): 0.1 nM

Compound: TMP-GGGC(PEG)GGGG-TMP (IEGPTLRQWLAARAGGGC(PEG)GGGGIEGPTLRQWLAARA; reading uncertain) [Peptide 20]
- in vitro bioactivity, in words (human mpl receptor): higher in vitro bioactivity as compared to their unpegylated counterparts
- activity compared with unpegylated rHu-MGDF (platelets; 10 μg/kg/day vs 100 μg/kg/day unpegylated rHu-MGDF, same experiment): about equally active
- percent of maximal activity (platelets; 10 μg/kg/day, 7-day micro-osmotic pumps): about 50%
- dose at which the maximum effect was seen (platelets; 7-day micro-osmotic pumps, data not shown): 100 µg/kg/day

Compound: CC[C@H](C)[C@H](N)C(=O)N[C@@H](CCC(=O)O)C(=O)NCC(=O)N1CCC[C@H]1C(=O)N[C@H](C(=O)N[C@@H](CC(C)C)C(=O)N[C@@H](CCCNC(=N)N)C(=O)N[C@@H](CCC(N)=O)C(=O)N[C@H]1CSSC[C@@H](C(=O)N[C@@H](CC(C)C)C(=O)N[C@@H](C)C(=O)N[C@@H](C)C(=O)N[C@@H](CCCNC(=N)N)C(=O)N[C@@H](C)C(=O)O)NC(=O)[C@H](CCC(N)=O)NC(=O)[C@H](CCCNC(=N)N)NC(=O)[C@H](CC(C)C)NC(=O)[C@H]([C@@H](C)O)NC(=O)[C@@H]2CCCN2C(=O)CNC(=O)[C@H](CCC(=O)O)NC(=O)[C@H]([C@@H](C)CC)NC(=O)CNC(=O)CNC(=O)CNC(=O)CNC(=O)CNC(=O)CNC(=O)CNC(=O)CNC(=O)[C@H](C)NC(=O)[C@H](CCCNC(=N)N)NC(=O)[C@H](C)NC(=O)[C@H](C)NC(=O)[C@H](CC(C)C)NC1=O)[C@@H](C)O [Peptide 14] (H-IEGPTLRQCLAARAGGGGGGGGIEGPTLRQCLAARA-OH; disulfide 9-31; N-terminus assumed)
- in vitro bioactivity, in words (human mpl receptor): inactive

Compound: IEGPTLRQALAARAGGGGGGGGIEGPTLRQALAARA-OH [Peptide 16, IEGPTLRQALAARA-GGGGGGGG-IEGPTLRQALAARA]
- in vitro bioactivity, in words (human mpl receptor): inactive
